Entries after “also recorded” stand apart in the source; their conditions may differ.
Columns and labels:
CLP mice = test: Survival of CLP mice; format: in vivo, C57BL/6 mice; conditions: peptide 0.2 nmol/g i.v. 1 h after CLP; observed up to 168 h; Kaplan-Meier; n = 15
Source text: (§1) Wild-type C57 mice were intraperitoneally injected with MSI001 bacteria (6 × 10^6 CFU/g body weight) to reproduce a sepsis model. […] Normal saline (NS) was used as control. […] One hour after CLP modeling, the mice were intravenously injected with LL37 or VTK-LL37 peptide at a dosage of 0.2 nmol/g body weight. Equal volume of normal saline (NS) was used as control. […] The mice were intraperitoneally injected with MSI001 bacteria. One hour later, the mice were subjected to tail vein injection (TVI) with VTK-LL37 (VTK-LL37 group), LL37 (LL37 group) or an equivalent volume of NS (sepsis group). Wild-type mice without modeling were used as controls (control group). The blood bacteria were quantitated as colony forming units (CFU) 12 h after injection of bacteria. n = 8. *P < 0.05, compared to control; ^#P < 0.05, compared to sepsis group^; ΔP < 0.05, compared to LL37 group. Results are expressed as the median with range. d Suppression of VTK-LL37 on the production of HMGB1 in the blood of septic mice. […] Twelve hours after bacterial injection, HMGB1 in the serum was quantitated by ELISA. n = 8. *P < 0.05, compared to control; ^#P < 0.05, compared to sepsis group; ^ΔP < 0.05, compared to LL37 group^. Results are expressed as the mean ± SD. e, f Protective effect of VTK-LL37 against organ damage in mice subjected to bacterial injection. […]

E. coli MSI001 [1] = test: Survival of mice subjected to septic modeling with MSI001; format: in vivo, C57BL/6 mice; conditions: MSI001 6 × 10^6 CFU/g i.p.; peptide 0.2 nmol/g i.v. 1 h later; observed up to 168 h; Kaplan-Meier; n = 20
Source text: as §1

E. coli MSI001 [2] = test: Biofilm detection (crystal violet, A570); format: cell-based, Escherichia coli; conditions: peptide 0-4 μmol/L, 37 °C, 3 days, A570, n = 5
Method: Fig. 6 Antimicrobial activity of the C7C-LL37 fusion peptides in vitro. a Primary structures and physical properties of the C7C and LL37 fusion peptides, including LL37, VTK-LL37, LL37-VTK, KYY-LL37 and LL37-KYY, ISS-LL37, INS-LL37. Net charge, PI and GRAVY values were acquired as described above. b Inhibitory effect of C7C-LL37 fusion peptides on bacterial growth. A C7C-LL37 fusion peptide or LL37 alone was added to the cultured bacterial strain MSI001 (1 × 10^3 CFU) at final concentrations of 0.25 μmol/L, 0.5 μmol/L and 1 μmol/L. Sterile DPBS was used as control. After incubation with the C7C-LL37 or LL37 peptides at 37 °C for different times (1-8 h), bacterial colonies were counted. n = 3. *P < 0.05, VTK-LL37 group compared to LL37 group; ^#P < 0.05, LL37-VTK group compared to LL37 group. c, d Inhibitory effect of VTK-LL37 on biofilm formation. […] The biofilm was stained with 1% crystal violet, and the precipitates were dissolved in 95% ethanol, followed by detection of absorbance at 570 nm (A570) (c). […]
When the OD600 of the bacterial suspension reached 1.0, the bacteria were transferred to a 96-well plate, and the VTK-LL37 or LL37 peptide was added at final concentrations of 0.5 μmol/L, 1 μmol/L, 2 μmol/L, or 4 μmol/L, followed by incubation at 37 °C. […] Bacterial biofilms were observed by microscopy and quantitated by spectrometry. […]

HMGB1 = HMGB1 quantitation in serum of septic mice (ELISA); format: in vivo, C57BL/6 mice; conditions: peptide by tail vein 1 h after bacterial injection; serum ELISA at 12 h; n = 8
Source text: as §1

bacterial strain MSI001 = test: In vitro antibacterial assay (colony counting); format: cell-based, Escherichia coli; conditions: 1 × 10^3 CFU, peptide 0.25, 0.5, 1 μmol/L, 37 °C, 1-8 h, colony count, n = 3
Method: Fig. 6 Antimicrobial activity of the C7C-LL37 fusion peptides in vitro. a Primary structures and physical properties of the C7C and LL37 fusion peptides, including LL37, VTK-LL37, LL37-VTK, KYY-LL37 and LL37-KYY, ISS-LL37, INS-LL37. Net charge, PI and GRAVY values were acquired as described above. b Inhibitory effect of C7C-LL37 fusion peptides on bacterial growth. A C7C-LL37 fusion peptide or LL37 alone was added to the cultured bacterial strain MSI001 (1 × 10^3 CFU) at final concentrations of 0.25 μmol/L, 0.5 μmol/L and 1 μmol/L. Sterile DPBS was used as control. After incubation with the C7C-LL37 or LL37 peptides at 37 °C for different times (1-8 h), bacterial colonies were counted. n = 3. *P < 0.05, VTK-LL37 group compared to LL37 group; ^#P < 0.05, LL37-VTK group compared to LL37 group. c, d Inhibitory effect of VTK-LL37 on biofilm formation. The VTK-LL37 or LL37 peptide was added to the bacterial culture at a final concentration of 0-4 μmol/L and incubated at 37 °C for 3 days. Bacterial culture medium and the peptides were refreshed every day. The biofilm was stained with 1% crystal violet, and the precipitates were dissolved in 95% ethanol, followed by detection of absorbance at 570 nm (A570) (c). Moreover, the biofilm was observed under a microscope (d). n = 5. *P < 0.05, VTK-LL37 group compared to LL37 group […]

CVTKLGSLCVPGVGLLGDFFRKSKEKIGKEFKRIVQRIKDFLRNLVPRTES [VTK-LL37]
survival of CLP mice (CLP mice): significantly increased the survival of sepsis mice induced by CLP modeling | survival of septic mice (E. coli MSI001 [1]): significantly increased the survival of septic mice | inhibition of biofilm formation (E. coli MSI001 [2]): inhibited biofilm formation of E. coli MSI001, and VTK-LL37 had a stronger inhibition of biofilm formation at a low dose than LL37 alone | production of HMGB1 in serum of septic mice (HMGB1): significantly suppressed the production of HMGB1 in the serum of septic mice, which was superior to LL37 | inhibitory effect on bacterial growth of MSI001 (bacterial strain MSI001): inhibited MSI001 bacterial growth but also showed stronger antibiotic activity than LL37 alone in the early stage (1-3 h); also recorded: stronger bacteriostatic activity than other LL37 fusion peptides

Reference: paper PMC9309159, “Identification of heptapeptides targeting a lethal bacterial strain in septic mice through an integrative approach” (Signal Transduction and Targeted Therapy, 2022)
